Where no end group is shown, it is not given here.
How the values were obtained:
FGF21 = assay: Western blot of FGF21 protein expression in myocytes; format: cell-based, mouse; conditions: differentiated C2C12 myocytes; 0.2, 2, 20 μg/mL; 24 hours; Western blot (FIGS. 6a, 6b)
Method: An experiment was performed to determine whether the peptide complex increases the phosphorylation of AMPK and the expression of SIRT1 and FGF21 proteins in myocytes.
C2C12 cells, mouse-derived myoblasts, were cultured in DMEM medium containing 1% P/S and 2% BCS. When the cell confluency reached 70-80%, the cells were seeded in a 6-well culture plate. When the cell confluency in the 6-well culture plate reached 100%, the medium was replaced with differentiation medium (1% P/S, 2% horse serum), and thereafter, the differentiation medium (1% P/S, 2% horse serum) was replaced once every two days. Five days after the first replacement, the peptide complex was treated at concentrations of 0.2 μg/mL, 2 μg/mL, and 20 μg/mL and cultured for 24 hours. The group untreated with the peptide complex was used as the control. After dissolving by adding dissolution buffer thereto, the proteins obtained were centrifuged at 4° C. and 12,000 rpm for 30 minutes, and quantified using a BCA kit. The proteins were subjected to sodium dodecyl sulfate-polyacrylamide gel electrophoresis (SDS-PAGE) and then electrotransferred onto a membrane. The membrane with the proteins attached was blocked by treating it with 5% skim milk, and then the primary antibody was reacted overnight at 4° C. […]

[1] = test system: AMP-activated protein kinase (AMPK); assay: Western blot of AMPK phosphorylation in palmitate-treated adipocytes (insulin metabolic disorder); format: cell-based; conditions: 3T3-L1 adipocytes, 25 μM palmitate 30 minutes; 0.2, 2, 20 μg/mL; 24 hours; Western blot (FIGS. 3a, 3b)
Method: (§1) An experiment was performed to determine whether the peptide complex prepared in Preparation Example 1 increases the phosphorylation of AMP-activated protein kinase (AMPK) and the expression level of SIRT1 (sirtuin1) protein in adipocytes in a state of insulin metabolic disorder induced by palmitate treatment.
(§2) When 3T3-L1 preadipocytes reached 80% confluence, they were seeded at 5×10^3 cells/well in a 96-well plate and used for the experiment. Two days after reaching confluence, the medium was replaced with a differentiation-inducing medium to induce the differentiation into adipocytes, and two days after the induction, the cells were cultured for 2 days in a medium containing 10% FBS and 10 μg/mL insulin, and then the medium was replaced with 10% FBS every 2 days until their differentiation into adipocytes. Once differentiation was complete, the medium was replaced with a serum-free medium and cultured for 4 hours to induce starvation. After 30 minutes of treatment with 25 μM palmitate, the peptide complexes were treated at concentrations of 0.2 μg/mL, 2 μg/mL, and 20 μg/mL and incubated for 24 hours. After dissolving by adding dissolution buffer, the proteins obtained by centrifugation at 4° C. and 12,000 rpm for 30 minutes were quantified using a BCA kit. […]

sirtuin 1 (SIRT1) = assay: Western blot of SIRT1 protein expression in adipocytes; format: cell-based; conditions: differentiated 3T3-L1 adipocytes; 0.2, 2, 20 μg/mL; 1 hour; Western blot (FIGS. 1a, 1b)
Method: An experiment was performed to determine whether the peptide complex prepared in Preparation Example 1 using adipocytes increases the phosphorylation of AMP-activated protein kinase (AMPK), which is a longevity-related protein, and increases the expression levels of sirtuin 1 (SIRT1) and fibroblast growth factor 21 (FGF21) proteins in adipocytes.
as §2, with “Once the” for “Once”, “The” for “After 30 minutes of treatment with 25 μM palmitate, the”, “μg/mL,” for “μg/mL and”, “1 hour, dissolved” for “24 hours. After dissolving”, “buffer thereto, and” for “buffer,”

SIRT1 (sirtuin1) protein = assay: Western blot of SIRT1 protein expression in palmitate-treated adipocytes (insulin metabolic disorder); format: cell-based; conditions: 3T3-L1 adipocytes, 25 μM palmitate 30 minutes; 0.2, 2, 20 μg/mL; 24 hours; Western blot (FIGS. 3a, 3b)
Method: as §1, §2

peptide complex: prepared by mixing equal amounts of the peptide of SEQ ID NO: 1 (LKTRN) and the peptide of SEQ ID NO: 2 (KGSATGWMA) (also: mixture of two peptides)
increased: expression level of FGF21 protein (FGF21) | phosphorylation of AMPKα [1] | expression level of SIRT1 protein (sirtuin 1 (SIRT1)) | expression level of SIRT1 protein (SIRT1 (sirtuin1) protein)
